Test results reported in patent US4794114A, “Inhibition of interleukin-1 production by monocytes and/or macrophages” (SmithKline Beckman Corporation, priority 1987, dated 1988).

Legend:
[1] = test system: endotoxin shock in C57B1/6 mice; type: in vivo, mouse; settings: for protection from lethal effects of LPS/GALN: mouse, in vivo
Experimental: Mice are very resistant to the lethal effects of bacterial lipopolysaccharides (LPS). D-Galactosamine (D-GALN) induces a high degree of sensitization to the lethal effects of LPS in mice and other experimental animals. [See, Galanos et al., Proc. Natl. Acad Sci. USA., 76, 5939 (1979)]. In mice, depending on the strain and age, the sensitivity to endotoxin can be increased many thousand-fold.
A number of preliminary experiments were carried out to establish this model of lethal endotoxin shock.

[2] = test system: adjuvant-induced arthritis in the rat; assay: adjuvant-induced arthritis in the rat: right leg paw edema; type: in vivo; settings: mg/kg: Compound 1 60, indomethacin 2.0, prednisolone 10, methotrexate 0.3, D-penicillamine 50
Experimental: (§1) Adjuvant-induced arthritis in the rat is a model of systemic inflammation with characteristics similar to rheumatoid arthritis in man. […] This model was employed to assess the effect of Compound 1 in vivo on this elevated IL-1 production. Briefly, rats were injected on day 0 with Freund's complete adjuvant in the right hind leg. Drugs were prepared as a suspension in tragacanth and administered daily per os either prophylactically (days 1 to 16) or therapeutically in a short-term modality (days 14 to 16). In all cases, final administration of drug occurred at 3 hours prior to sacrifice. Spleens were removed from these rats and the adherent cells were assessed for their ability to produce IL-1 in vitro in response to stimulation by LPS.
(§2) PROPHYLACTIC TREATMENT: Drugs were administered daily p.o. as a suspensio
(§3) in tragacanth from day 1 to day 16. Final dose given 3 hrs before
(§4) TREATMENT: Drugs were administered daily p.o. as above from
(§5) day 14 to day 16. Final dose given 3 hrs before sacrifice.
(§6) ***P < 0.01 Indomethacin 2.0 mg/kg
(§7) **P < 0.05 Compound 1 60 mg/kg
(§8) *P < 0.10 Prednisolone 10 mg/kg
(§9) D-Penicillamine 50 mg/kg

[3] = test system: IL-1 production by splenic adherent cells; assay: adjuvant-induced arthritis in the rat: IL-1 production by LPS-stimulated splenic adherent cells; type: in vivo; settings: for IL-1 Production (splenic adherent cells), % normal control: mg/kg: Compound 1 60, indomethacin 2.0, prednisolone 10, methotrexate 0.3, D-penicillamine 50; for effect in adjuvant arthritic rats: short-term treatment
Experimental: as §1, §2, §3, §4, §5, §6, §7, §8, §9

[4] = test system: splenic adherent cells; assay: adjuvant-induced arthritis in the rat: % splenic adherent cells; type: in vivo; settings: mg/kg: Compound 1 60, indomethacin 2.0, prednisolone 10, methotrexate 0.3, D-penicillamine 50
Experimental: as §1, §2, §3, §4, §5, §6, §7, §8, §9

[5] = test system: IL-1 production by human monocytes; assay: in vitro IL-1 production by LPS-stimulated human peripheral blood monocytes (EL-4 readout); type: cell-based; settings: for inhibition at 10 µM / inhibition at 1 µM / inhibition at 0.1 µM: Homo sapiens, Monocyte, read-out: % Inhibition IL-1; for inhibition at 10 µM: 10^-5 M; for inhibition at 1 µM: 10^-6 M; for inhibition at 0.1 µM: 10^-7 M
Experimental: The effects of antiinflammatory/antiarthritic drugs of different classes, including Compound 1 on the in vitro production of IL-1 by human monocytes was examined.
(§10) Bacterial lipopolysaccharide (LPS) was used to induce IL-1 production by human peripheral blood monocytes. IL-1 activity was measured by its ability to stimulate a Interleukin 2 (IL-2) producing cell line (EL-4) to secrete IL-2, in concert with A23187 ionophore, according to the method of Simon et al., J. Immunol. Methods, 84, 85, (1985). Human peripheral blood monocytes were isolated and purified from either fresh blood preparations from volunteer donors, or from blood Bank buffy coats, according to the procedure of Colotta et al., J. Immunol., 132, 936 (1984). 1×10^6 of such monocytes are plated in 24-well plates at a concentration of 2 million/ml per well. The cells were allowed to adhere for 2 hours, after which time non-adherent cells were removed by gentle washing. Test compounds were then added to the cells for 1 hour (hr) before the addition of lipopolysaccharide (10 ng/ml unless otherwise noted), and the cultures were incubated at 37° C. for an additional 24 hours. At the end of the incubation period, culture supernatants were removed and clarified of cells and all debris. Culture supernatants were immediately assayed for IL-1 biological activity as well as prostaglandin and/or leukotriene concentrations by radioimmunoassay.
^(a) All compounds, except chloroquine, were dissolved in absolute
ethanol at 10^-2 M, which was subsequently diluted further in tissue
assay system at doses tested. Furthermore, test samples were dialyzed
prior to testing in the IL1 assay.
In order to elucidate the mechanism by which Compound 1 mediates its anti-inflammatory activity, the ability of this compound and two closely related analog metabolites, (i.e., the analogs of Compound 1 wherein X is S(0)n and n is 1 or 2) to inhibit human IL-1 production in vitro was evaluated according to the method of Example 1. Briefly, 1×10^6 human peripheral blood monocytes were plated in 24-well plates and allowed to adhere for 1 hr at 37° C. The above compounds were added to a final concentration of 10^-5 M to 10^-8 M. The monocytes were stimulated to produce IL-1 with 1 ng/ml LPS after a 1 hr pretreatment of the cells with the respective compounds.
The inhibitory effect of additional compounds of Formula (I) on the in vitro production of IL-1 production of IL-1 by human monocytes was determined according to the procedure of Examples 1 and 2.

[6] = test system: PGE2; assay: in vitro prostaglandin (PGE2) synthesis by LPS-stimulated human monocytes, RIA; type: cell-based; settings: for inhibition at 10 µM / inhibition at 1 µM / inhibition at 0.1 µM: Homo sapiens, Monocyte, read-out: % Inhibition PGE2; for inhibition at 10 µM: 10^-5 M; for inhibition at 1 µM: 10^-6 M; for inhibition at 0.1 µM: 10^-7 M
Experimental: as §10
^(c) PGE2 was assayed using an RIA kit.

[7] = in vitro; type: cell-based, human; settings: human, peripheral blood monocytes
Experimental: as §10
^(b) At doses at or above 10^-5 M, this compound exerted some

[8] = test system: murine model of endotoxin shock; settings: Hagmann et al., 1982; cited from earlier work
[9] = prophylactic, daily p.o. days 1-16
[10] = therapeutic, daily p.o. days 14-16

SMILES	Right leg paw edema, % normal control [2, 9] [% normal control]	Right leg paw edema, % normal control [2, 10] [% normal control]	IL-1 Production (splenic adherent cells), % normal control [3, 9] [% normal control]	IL-1 Production (splenic adherent cells), % normal control [3, 10] [% normal control]	effect in adjuvant arthritic rats ([3]; therapeutic)	% Adherent Cells (splenic), % normal control [4, 9] [% normal control]	% Adherent Cells (splenic), % normal control [4, 10] [% normal control]	inhibition of IL-1 production [5]	inhibition at 1 µM [5] [%]	inhibition at 0.1 µM [5] [%]	inhibition of prostaglandin synthesis [6]	inhibition at 1 µM [6] [%]	also measured
C[C@@H]1C[C@H]2[C@@H]3CCC4=CC(=O)C=C[C@]4(C)[C@@]3(F)[C@@H](O)C[C@]2(C)[C@@]1(O)C(=O)CO [Dexamethasone]	–	–	–	–	–	–	–	–	–	–	–	–	protection ([1]; administered 24 hours and 1 hour prior to LPS/GALN): provided protection
COc1ccc2c(c1)c(CC(=O)O)c(C)n2C(=O)c1ccc(Cl)cc1 [INDOMETHACIN, indomethacin]	113 ± 8	145 ± 18	274 ± 100	330 ± 121	no effect	480 ± 189	394 ± 253	–	–	–	–	–	–
CC(C)Cc1ccc(C(C)C(=O)O)cc1 (centres unmarked) [Ibuprofen, ibuprofen]	–	–	–	–	–	–	–	virtually no effect on IL-1 production	0	0	highly active in inhibiting prostaglandin synthesis	71	inhibition at 10 µM [5]: 9%; inhibition at 10 µM [6]: 97%; inhibition at 0.1 µM [6]: 63%
CN(Cc1cnc2nc(N)nc(N)c2n1)c1ccc(C(=O)N[C@@H](CCC(=O)O)C(=O)O)cc1 [METHOTREXATE, methotrexate]	96 ± 4	194 ± 2	67 ± 56	436 ± 178	no effect	134 ± 10	284 ± 175	–	–	–	–	–	–
CC(Cc1ccc(O)c(O)c1)C(C)Cc1ccc(O)c(O)c1 (centres unmarked) [NDGA, nordihydroguaiaretic acid]	–	–	–	–	–	–	–	marginally active in inhibition of IL-1 production	33	31	little inhibitory effect on prostaglandin synthesis	0	inhibition at 10 µM [5]: 88%; inhibition at 10 µM [6]: 25%; inhibition at 0.1 µM [6]: 0%; viability at 24 h, 10 µM [7]: ~50%
C[C@]12C=CC(=O)C=C1CC[C@@H]1[C@@H]2[C@@H](O)C[C@@]2(C)[C@H]1CC[C@]2(O)C(=O)CO [PREDNISOLONE, Prednisolone]	125 ± 22	147 ± 18	168 ± 40	300 ± 280	–	184 ± 79	82 ± 47	–	–	–	–	–	–
O=C1CCN(c2ccccc2)N1 [Phenidone, phenidone]	–	–	–	–	–	–	–	marginally active in inhibition of IL-1 production	18	0	little inhibitory effect on prostaglandin synthesis	0	protection from lethal effects of LPS/GALN [1]: protective effects
CC(=O)OC[C@H]1O[C@@H]([S-])[C@H](OC(C)=O)[C@@H](OC(C)=O)[C@@H]1OC(C)=O.CCP(CC)CC.[Au+] [auranofin]	–	–	–	–	no effect	–	–	–	–	–	–	–	–
Clc1ccc(C(c2ccc(Cl)cc2)n2cc[n+](CC(OCc3ccc(Cl)cc3Cl)c3ccc(Cl)cc3Cl)c2)cc1 (centres unmarked) [calmidazolium]	–	–	–	–	–	–	–	–	–	–	–	–	prevention of endotoxin lethality [8]: prevented endotoxin lethality
CN/C(=N/CCSCc1nc[nH]c1C)NC#N [cimetidine]	–	–	–	–	–	–	–	–	–	–	–	–	protection from lethal effects of LPS/GALN [1]: not
